From patent US11571481B2, “Peptide-linked drug delivery system” (priority 2020, dated 2023) come the findings set out here.

“Also recorded” adds a separate entry of the source. Where a SMILES comes first, the peptide text is derived from it. [ ]: non-standard residue; d: D form. The star is where a group is joined. X1 = COc1cc2cc(c1Cl)N(C)C(=O)C[C@H](OC(=O)[C@H](C)N(C)C(=O)CCS*)[C@]1(C)O[C@H]1[C@H](C)[C@@H]1C[C@@](O)(NC(=O)O1)[C@H](OC)/C=C/C=C(\C)C2; βAla = NCCC(=O)O; Mpa = O=C(O)CCS

The nature of data set [1]: Nephrotoxicity studies (urinary NGAL and KIM-1, kidney histology and IHC). The format is in vivo, BALB/c mice. Conditions: for induction of KIM-1 and/or NGAL: i.v., at 3 days. As to the method: The level of the acute renal injury biomarkers, neutrophil gelatinase-associated lipocalin (NGAL) and kidney injury molecule-1 (KIM-1) in the urine samples, were measured using ELISA assays according to the manufacturer's instructions (R&D Systems, Minneapolis, Minn.). […] All the animals (n=3/group) were euthanized at the end of the treatment and the kidneys were collected and fixed in 10% neutral buffered formalin. The tissues were then processed, embedded in paraffin, sectioned, and stained with H&E. Immunohistochemistry (IHC) for kidney injury (NGAL and KIM-1) was also performed.

A short description of data set [2]: Toxicity profile in healthy animals (hematology, serum biochemistry, necropsy). In kind it is in vivo, BALB/c mice. Conditions: for hematology (red blood cell, leukocyte, platelet counts, morphology) / histopathology of liver, spleen, heart, lungs, kidneys / serum liver enzymes (ALP, ALT, AST) / urea nitrogen/creatinine ratio: DM1, DM1-Bdd 0.75 mg/kg. From the text: At the end of a 3-week treatment, mice were euthanized. The organs/tissues were harvested, fixed in 10% neutral buffered formalin for 2 days. Bones were decalcified in a formic acid solution (Surgipath Decalcifier I; Leica Biosystems, Weltzar, Germany). The samples were then embedded in paraffin, sectioned (5 μm), and stained with H&E for examination by an ACVP board certified anatomic pathologist.
Hematology and biochemistry—Blood samples were collected via cardiac puncture. A complete blood count, including red blood cell, white blood cell, reticulocyte and platelet counts, with an automated differential leukocyte count, was performed using an IDEXX Procyte DX hematology analyzer (iDEXX, Westbrook, Me.). Blood smears were prepared, stained with modified Wright's stain, examined in a blinded fashion by a board-certified veterinary clinical pathologist (T. S.), and imaged using a Nikon Eclipse TE2000-U fluorescent microscope equipped with a photometrics CoolSNAP HQ^2 camera (Nikon Corporation, Tokyo, Japan). The blood was also centrifuged (1,500×G) for 15 min to obtain the serum for biochemical analysis using a Beckman Coulter AU680 analyzer (Beckman Coulter, Brea, Calif.).

Data set [3] has as its system orthotopic human UMUC-3/GFP-Luc bladder tumors. Description: Therapeutic efficacy of drug-Bdd conjugates for treating BC (orthotopic xenograft).
Method: Therapeutic efficacy of drug-Bdd conjugates for treating BC—Animals were orthotopically implanted with tumors as previously described. Briefly, the urine of 7- to 9-week-old female NSG mice (Jackson Laboratory, Bar Harbor, Me.) was remove through a sterile 24 G pediatric venous catheter (Dublin, Ireland). A trypsin solution (0.125%, 80 μL) was then delivered into the bladder, Subsequently. UMUC-3/GFP-Luc cells (4×10^4 cells) in culture media (50 μL) were transferred into the bladders and allowed for seeding. Tumor progression was monitored by bioluminescence imaging. Luciferin (3 mg) in PBS (100 μL) was given to the animals (via intraperitoneal injection) 15 min prior to performing imaging. […] The therapeutic efficacy was evaluated based on tumor growth inhibition (bioluminescence imaging) and long-term survival.
Data set [4] can be described thus: Fluorescence imaging of Cy-peptide analogues (whole body, urine, ex vivo organs). Conditions: i.v. 0.5 nmol, images 1 and 4 h.
Method: Fluorescence imaging—Female SHO mice (Charles River Laboratories, Wilmington, Mass.) were administered with free Cyanine5.5 or Cy-peptide analogues (0.5 nmol of Cyanine5.5 content measured by UV absorbance at 680 nm) in a PBS (150 μL) via tail-vein injections (n=4/group). Real-time fluorescence imaging was performed using In vivo Xtreme imaging system (Bruker, Billerica, Mass.). Whole body fluorescence images were acquired 1 and 4 h post injection using the appropriate excitation (670 nm) and emission (750 nm) filters. The animals were then euthanized. The organs were excised to perform ex vivo fluorescence imaging. Imaging was also performed on urine samples (50 μL) collected from separate animals 1 h after i.v. injection of free dye or Cy-peptide analogues (n=4/treatment). Bruker MI software was used to process the fluorescence/bright light images and measure the fluorescence intensity in different ROIs. All the data were corrected to eliminate the organ or fluid auto-fluorescence.
Another data set has as its system panel of BC cell lines. The experiment in a line: Cell viability and cytotoxicity assay (CellTiter Glo, 72 h). In kind it is cell-based. As to the method: (§1) Cell viability and cytotoxicity assay—Cancer cells (3×10^3/well) were seeded on a flat bottom 96-well plate overnight. […] CellTiter Glo reagent (Promega, Madison, Wis.) was added in each well (50 μL). The luminescence generated was recorded using a microplate reader (Tecan US Inc., Morrisville, N.C.). The dose response curves were plotted, and the half maximal inhibitory concentrations (IC50 values) were calculated using Graph Pad Prism 6.0 software.
On the technique in general: In ATP-based viability assays light output follows the ATP content of the culture.

In another data set the test system is UMUC-3. The description is as above. The format is cell-based, human. Conditions: UMUC-3, 72 h. The procedure: as §1
For another data set, the system named is Renca. Described as above. The format is cell-based, murine. As to the method:
as §1

The subject of data set [5] is Renca/GFP-Luc tumors in kidney capsule. Description: Evaluation of DM1-Bdd for kidney cancer treatment (syngeneic orthotopic model). In kind it is in vivo, BALB/c mice. From the text:
The animals were monitored for tumor growth inhibition and survival as described above. Additional mice were used for histopathological analysis (n=4/group).
Slides were then counterstained with Hematoxylin.

Data set [6] is described as follows: Immunogenicity assay (plasma cytokines by ELISA). The format is in vivo, BALB/c mice. Conditions: 5 mg/kg i.v., 4 h after injection. The procedure: Immunogenicity assay—Female BALB/c mice were treated with a single dose of Bdd or LPS (5 mg/kg) via tail-vein injection (n=3/group). Mice administered with PBS were used as a negative control. Blood samples were collected 4 h later via retro-orbital sinus puncture technique, and the concentration of the innate immune and inflammatory cytokines IL1β, IL2, IL6, IL10, TNF-α, and INF-γ in plasma was measured with commercial sandwich enzyme-linked immunosorbent assay kits. ELISA assays were performed according to the manufacturer's instructions (Invitrogen, Carlsbad, Calif.).

Data set [7] is described as follows: μPET/CT imaging and end-point biodistribution study of ^89Zr-peptides. The format is in vivo, BALB/c mice. The procedure:
μPET/CT imaging and biodistribution study—BALB/c mice were intravenously injected with different ^89Zr-peptide analogues (20 μCi, 100 μL). μPET/CT imaging was performed in animals with and without urine collection prior to the first imaging (n=4/analogue/condition). Whole-body images were acquired 1, 4, and 24 h after injection, using Inveon μPET/CT scanner (Siemens Medical Solutions, Malvern, Pa.). μPET/CT maximum […] projections were processed using Amide v1.0.4 and Inveon Research Workplace software. The radioactivities at different region of interest (ROI) were determined. For end-point biodistribution studies, the mice were euthanized 0.17, 1, 2, 5, and 7 days after treatment with ^89Zr-peptides (n=3/peptide analogue/time point). The radioactivities of the harvested organs were measured using the Wallac Wizard 2 gamma counter. The results were corrected from radioactive decay, and were expressed as a percentage of the injected dose (% ID) or percentage of injected dose per gram of tissue (% ID/g).

Details of data set [8]: species or system BALB/c mice. Conditions: mouse, in vivo, iv. The procedure: Pharmacokinetic study—BALB/c mice (Jackson Laboratory, Bar Harbor, Me.) were administered with ^89Zr-peptide or free ^89Zr (20 μCi, 100 μL) via tail-vein injections (n=4/condition). Blood samples (20 μL) were collected at various time intervals, using retro-orbital sinus puncture technique. The radioactivities were measured on Wallac Wizard 2 gamma counter (Perkin-Elmer, Waltham, Mass.). The pharmacokinetic models and parameters of ^89Zr-peptides and free ^89Zr, including the serum half-life and the plasma clearance, were estimated by fitting the data for compartmental model selection using PKSolver 2.0 software.

[9] abbreviates: i.v. 0.75 mg/kg of drug content weekly for 3 weeks.
The mark [10] stands for this setting: i.v. weekly for 3 weeks, CIS 10 mg/kg.

On to `Nc1ccn([C@@H]2O[C@H](CO)[C@@H](O)C2(F)F)c(=O)n1` [GEM, gemcitabine], for which, in [1], the “induction of KIM-1 and/or NGAL” value is on record as “continued induction”.
`COc1cc2cc(c1Cl)N(C)C(=O)C[C@H](OC(=O)[C@H](C)N(C)C(=O)CCSSCCC(=O)NCCC(=O)N[C@H](CC(=O)O)C(=O)N[C@H](CC(=O)O)C(=O)NCCC(=O)N[C@H](CC(=O)O)C(=O)N[C@H](CC(=O)O)C(=O)NCCC(=O)N[C@H](CC(=O)O)C(=O)N[C@H](CC(=O)O)C(=O)NCCC(=O)N[C@H](CC(=O)O)C(=O)N[C@H](CC(=O)O)C(N)=O)[C@]1(C)O[C@H]1[C@H](C)[C@@H]1C[C@@](O)(NC(=O)O1)[C@H](OC)/C=C/C=C(\C)C2` [DM1-Bdd] ([Mpa](X1)[βAla][dD][dD][βAla][dD][dD][βAla][dD][dD][βAla][dD][dD]-NH2): the “immunoreactivity of kidney sections for KIM-1 and NGAL compared to PBS” value in data set [1] (3 days after i.v. administration) is listed as “no elevation of the immunoreactivity”. The “histologic examination of kidneys” value in data set [1] (3 days after i.v. drug administration, CIS 10 mg/kg, DM1-Bdd 0.75 mg/kg) is reported as “did not reveal any abnormalities”. For the same compound, the “time for urinary KIM-1 and NGAL to return to basal levels” value in [1] (single i.v. dose 0.75 mg/kg of drug content) is recorded as at most 3 days. Besides, the “urinary KIM-1 and NGAL levels” value in data set [1] (single i.v. dose 0.75 mg/kg of drug content, 1 day after injection) is “slightly increased”. Further, the hepatotoxicity entry in data set [2] (setting [9]) is reported as “not hepatotoxic”. In addition, in data set [2] (setting [10]), the “hematology (red blood cell, leukocyte, platelet counts, morphology)” value is “did not affect”; the “histopathology of liver, spleen, heart, lungs, kidneys” value is “no morphological evidence of injury”; the “serum liver enzymes (ALP, ALT, AST)” value is “no significant alteration”; the urea nitrogen/creatinine ratio entry is given as “normal”.
As for `COc1cccc2c1C(=O)c1c(O)c3c(c(O)c1C2=O)C[C@@](O)(C(=O)CO)C[C@@H]3O[C@H]1C[C@H](N)[C@H](O)[C@H](C)O1` [DOX, Doxorubicin], the animal survival result in [3] (5 mg/kg of drug content weekly for 3 weeks) was “shorter life expectancy compared to the PBS control”. The drug-induced mortality result in [3] (DOX 5 mg/kg weekly) was “died prior to receiving the final dose”.
On to `CO[C@@]12[C@H](COC(N)=O)C3=C(C(=O)C(C)=C(N)C3=O)N1C[C@@H]1N[C@@H]12` [MIT, Mitomycin], for which the “induction of KIM-1 and/or NGAL” value in [1] was “continued induction”.
Consider Cyanine5.5, for which the “elimination route / main organ uptake by fluorescence imaging” value in [4] is listed as “mainly taken up by the liver”.
On to `COc1cc2cc(c1Cl)N(C)C(=O)C[C@H](OC(=O)[C@H](C)N(C)C(=O)CCS)[C@]1(C)O[C@H]1[C@H](C)[C@@H]1C[C@@](O)(NC(=O)O1)[C@H](OC)/C=C/C=C(\C)C2` [DM1, N2′-deacetyl-N2′-(3-mercapto-1-oxopropyl)-maytansine], for which the “potency relative to commonly used ITC drugs (MIT, DOX and CIS)” value in the data set on panel of BC cell lines is listed as 100 fold. In the data set with UMUC-3, the IC50 values result is “nanomolar (nM) range”; the “potency compared to other conventional chemotherapeutics” value was “more potent than cisplatin (CIS), doxorubicin (DOX) and mitomycin (MIT), and as effective as gemcitabine (GEM)”. In the data set on Renca, the “activity against Renca cell line” value was “effective”. Also, the “induction of KIM-1 and/or NGAL” value in data set [1] is given as “continued induction”. Also, the survival entry in data set [5] (either i.v. or i.t., 0.75 mg/kg weekly) is given as “died”. Also, the “histological examination of kidneys (tumor)” value in [5] (one week after completing the treatment course) was “large and accompanied with an infiltration of mononuclear cells”. Moreover, in data set [2] (i.v. weekly for 3 weeks, DM1 0.75 mg/kg, CIS 10 mg/kg), the “muscle injury (CK activity)” value is on record as “induced muscle injury”. Besides, in data set [2] (setting [10]), the “hematology (red blood cell, leukocyte, platelet counts, morphology)” value was “reticulocytosis without apparent anemia; also recorded: inflammatory response characterized by increased proportions of neutrophils, monocytes, and platelets”; the “histopathology of liver, spleen, heart, lungs, kidneys” value was “Increased splenic and hepatic EMH”; the “serum liver enzymes (ALP, ALT, AST)” value is “increases”; the urea nitrogen/creatinine ratio entry is given as “increases”. For the same compound, in data set [3] (setting [9]), the “animal survival compared to i.t. MIT” value is “prolonged animal survival” and the “tumor growth inhibition compared to i.t. MIT” value was “more effective in inhibiting tumor growth”. For the same compound, the “overall survival after 100 days” value in [3] (i.v. 0.75 mg/kg weekly for 3 weeks) turned out to be 0%.
Regarding `NCCC(=O)N[C@H](CC(=O)O)C(=O)N[C@H](CC(=O)O)C(=O)NCCC(=O)N[C@H](CC(=O)O)C(=O)N[C@H](CC(=O)O)C(=O)NCCC(=O)N[C@H](CC(=O)O)C(=O)N[C@H](CC(=O)O)C(=O)NCCC(=O)N[C@H](CC(=O)O)C(=O)N[C@H](CC(=O)O)C(N)=O` [Bdd] (HELM PEPTIDE1{[bAla].[dD].[dD].[bAla].[dD].[dD].[bAla].[dD].[dD].[bAla].[dD].[dD].[am]}$$$$V2.0; N-terminus assumed), the “inflammatory cytokine levels (IL-1β, IL-2, IL-6, IL-10, TNF-α, INF-γ) in plasma” value in [6] is “no increase”.
As to `CC(=O)N(O)CCCCCNC(=O)CCC(=O)N(O)CCCCCNC(=O)CCC(=O)N(O)CCCCCNC(=S)Nc1ccc(NC(=S)NCCC(=O)N[C@H](CC(=O)O)C(=O)N[C@H](CC(=O)O)C(=O)NCCC(=O)N[C@H](CC(=O)O)C(=O)N[C@H](CC(=O)O)C(=O)NCCC(=O)N[C@H](CC(=O)O)C(=O)N[C@H](CC(=O)O)C(=O)NCCC(=O)N[C@H](CC(=O)O)C(=O)N[C@H](CC(=O)O)C(N)=O)cc1` [^89Zr-Bdd, metal not drawn] (HELM PEPTIDE1{[CC(=O)N(O)CCCCCNC(=O)CCC(=O)N(O)CCCCCNC(=O)CCC(=O)N(O)CCCCCNC(=S)Nc1ccc(NC(=S)[*:2])cc1].[bAla].[dD].[dD].[bAla].[dD].[dD].[bAla].[dD].[dD].[bAla].[dD].[dD].[am]}$$$$V2.0), the “time to excretion into the urine after i.v. administration” value in data set [7] (i.v., confirmed by absence of radioactivity in emptied bladders) was at most 1 h. For the same compound, in [7] (mouse, in vivo), the “ID found in kidneys” value worked out at 15.1 % ID and the “ID found in kidneys after 7 days” value is 2.1 % ID. The “peptide in major organs or blood circulation” value in data set [7] (mouse, in vivo, iv) was “No peptide in major organs or blood circulation was detected”. Further, in data set [8] (BALB/c), the terminal half-life stood at 31.8 min. Moreover, the plasma clearance entry in data set [8] is given as “rapid”.
